One series deals with HCT116 cells. In words: siRNA cytotoxicity: reduction in HCT116 culture confluency after transfection. The conditions noted are these: relative to negative control RNAi cultures. It is filed as cell-based, human. The method, then: siRNAs derived from the shRNAs of Example 2 were all highly cytotoxic to HCT116 cells. The siRNA sequences and shRNAs from which they were derived are shown below
Cytotoxicity was determined by the reduction in culture confluency over time after transfection of the siRNA relative to negative control RNAi cultures.

Series [1] can be described thus: Tolerability of anthracycline in mice. It is filed as in vivo. The conditions noted are these: applied intraperitoneally. As for the experimental part:
To study factors that influence the outcome of conventional AML therapy in mice, we established a simple chemotherapy regimen involving intraperitoneal injection of cytarabine (100 mg/kg over 5 days) and doxorubicin (3 mg/kg over 3 days; FIG. 36A), which mimics the standard induction therapy used to treat AML in human patients. […] Efficacy and safety of this regimen were initially evaluated in a previously described model based on co-transduction of MLL/ENL and FLT3-ITD (Ono et al. 2005). In order to rapidly generate homogenous treatment cohorts we harvested bone marrow and spleen from terminally ill primary FLC recipient mice and transplanted 1 million leukemia cells into 20-30 secondary recipients. In initial studies, we noted that this combination therapy was not tolerated in mice when treatment was initiated based on a high leukemia burden in the peripheral blood; although the peripheral disease disappeared within two days, animals died shortly thereafter with peripheral leukopenia.

Series [2] relates to MLL-AF9/Nras leukemia cells. The conditions noted are these: different concentrations.
In series [3] the test system is non-transformed 32D cell line. The conditions noted are these: different concentrations.
For series [4], the system named is Mouse hepatocellular carcinoma cells (Hepa1.6). In words: Hepa1.6 colony formation assay. To be noted: high MOI, low density plating, crystal violet. The format is cell-based. As for the experimental part:
(FIG. 8A) Mouse hepatocellular carcinoma cells (Hepa1.6) were transduced at high MOI with shRNAs targeting replication genes. Cells were plated at low density, stained with crystal violet, and staining was quantified on a Licor scanner. Values are normalized to empty vector control. (FIG. 8B) Representative scans of colony formation assays of cells infected with an antiproliferative shRNA (top—shRpa3.457) or empty vector control (bottom).
An assay similar to that described in Example 1 was used to test the effect of RNAi molecules against genes encoding DNA replication proteins in mouse cancer cells (Hepa1.6). Similar results in mouse cells were observed as compared to human cells (FIG. 8 and FIG. 9). For example, mouse tumors regress upon induction of RNAi against Rpa3 (FIG. 17).

Another series has as its system Hepa1.6 cells. As to the kind of experiment: In vitro competition assay in Hepa1.6 cells. It is filed as cell-based, mouse. The conditions noted are these: five passages 1:8. The text has this: Two days after transduction with a GFP-tagged vector, the number of fluorescent cells was quantified. Cells were passaged 1:8 five times, and the number of GFPpositive transduced cells was quantified at each passage.

The test system of series [5] is mouse liver carcinoma cells. As to the kind of experiment: Subcutaneous liver carcinoma tumor growth after doxycycline induction of shRNA. The format is in vivo, nude mice. The conditions noted are these: doxycycline 2 mg/ml in drinking water from two weeks after injection. As for the experimental part:
One million mouse liver carcinoma cells transduced with an inducible shRpa3.457 were injected subcutaneously in nude mice. Two weeks after injection, mice were either treated with doxycycline 2 mg/ml in their drinking water, or left untreated. Change in tumor volumes was measured following treatment.

“RPA3si1417: siRNA CAUCUUAUGUCCAGUUUAA (SEQ ID NO: 1), derived from v2HS_32101 (listed as RNA, chemistry not fully specified)”: the “cytotoxicity (reduction in culture confluency over time)” value in the series on HCT116 cells was “more cytotoxic than RPA3si1403”.
As to `COc1cccc2c1C(=O)c1c(O)c3c(c(O)c1C2=O)C[C@@](O)(C(C)=O)C[C@@H]3O[C@H]1C[C@H](N)[C@H](O)[C@H](C)O1` [daunorubicin], the toxicity entry in series [1] is reported as “high toxicity”.
For `N[C@@H]1C[C@H]1c1ccccc1` (racemic) [tranylcypromine], the proliferation result in [2] is “dose-dependent inhibition”. Moreover, the growth entry in series [3] is “no impact”; with HL60 it was “an effect on growth”; in the series on Kasumi1, “an effect on growth”; in the series with Molm13, “an effect on growth”.

B1: shRpa3.457: shRNA, SEQ ID NO: 60 (nucleic acid)
chain: TGCTGTTGACAGTGAGCGCGCGACTCCTATAATTTCTAATTAGTGAAGCCACAGATGTAATTAGAAATTATAGGAGTCGCTTGCCTACTGCCTCGGA
With B1, in [4], the “effect on colony formation” value was “antiproliferative”. Further, the “competition with uninfected GFP-negative cells” value in the series on Hepa1.6 cells is recorded as “outcompeted by uninfected, GFP-negative cells”. In addition, the “change in tumor volumes” value in series [5] was “stopped growing or regressed”.

The record behind these values is patent publication US8895526B2, “Identification of RNAI targets and use of RNAI for rational therapy of chemotherapy-resistant leukemia and other cancers” (Cold Spring Harbor Laboratory, priority 2009, dated 2014).
